Data on 8 molecules can be found in patent US4962113A, “Pyridinium derivatives, their production and use” (Takeda Chemical Industries, Ltd, priority 1987, dated 1990).

Read-outs that look alike come from different tables or passages of the source.

In assay [1] the test system is platelet aggregation (PAF). The assay is described as follows: Inhibitory action on PAF-induced rabbit platelet aggregation. Particulars: Oryctolagus cuniculus, read-out: inhibitory percentage (platelet aggregation); for inhibition at 3 µM: 3 × 10^-6 M; for inhibition at 0.3 µM: 3 × 10^-7 M; for inhibition at 0.03 µM: 3 × 10^-8 M. In kind it is cell-based. On the procedure: Blood was collected directly from the hearts of male rabbits using a syringe containing, as an anticoagulant, 3.15% citric acid (one part to 9 parts of blood). The blood was subjected to centrifuge at 800 rpm for ten minutes at room temperature to obtain platelet rich plasma (PRP). The remaining blood was further subjected to centrifuge at 3000 rpm for ten minnutes to separate platelet poor plasma (PPP) as the supernatant. PRP was diluted with PPP, and the number of platelets was adjusted to about 500,000/ μl. This PRP(250 μl) was stirred for two minutes at 37° C., and there was added a test sample, and the mixture was stirred for further two minutes, followed by addition of PAF of a given concentration. Platelet aggregation was examined by means of a platelet-agglutometer (manufactured by Rika Denki). Platelet aggregation preventing action of the test sample was determined based on the maximum percent light transmission (maximum percent. agglutination).

The test system of another assay is PAF-induced hypotension. The assay is described as follows: Inhibitory action on PAF-induced hypotension in rats. In kind it is in vivo, rat (Sprague-Dawley). Particulars: Rattus norvegicus, read-out: Inhibitory Rate (Lowering of Blood Pressure); for inhibition in vivo at 0.03 mg/kg: iv; for inhibition in vivo at 1 mg/kg / inhibition in vivo at 3 mg/kg: oral. How it is done: Sprague-Dawley male rats, each weighing about 250 g, were subjected to the experiment. The rats were cannulated on the side of femoral artery for measuring the blood pressure, and on the side of femoral vein for administering the drug. The blood pressure was measured through a pressure transducer and recorded. First, PAF (1 μg/kg) was administered intravenously (i.v.) to examine the extent of lowering of blood pressure. Then, the test samples were administered intravenously or orally. […]
The inhibitory action on PAF-induced hypotension (% inhibition) is indicated as the ratio of blood pressure-lowering degree (Δ mmHg) induced by PAF after administration of test samples relative to blood pressure-lowering degree (Δ mmHg) induced by PAF before administration of test samples.

For `CCC[n+]1cc(Br)cc(C(=O)N(CCOC(=O)NCCOC(=O)N2CCc3ccccc3C2)c2ccccc2)c1` [Production Example 77, 5-Bromo-3-[N-[2-[[2-(1,2,3,4-tetrahydroisoquinolyl)carbonyloxy]ethyl]carbamoyloxy]ethyl-N-phenyl]carbamoyl-1-propylpyridinium chloride], the inhibition at 3 µM in assay [1] came to 100%. Besides, the inhibition at 0.3 µM in assay [1] worked out at 100%. In addition, the inhibition at 0.03 µM in assay [1] was found to be 51%. Besides, the inhibition in vivo at 0.03 mg/kg in the assay with PAF-induced hypotension (1 hr.) was 100%; in the assay on PAF-induced hypotension (2 hr.), 97%; in the assay with PAF-induced hypotension (4 hr.) it was 62%; with PAF-induced hypotension (6 hr.) it was 46%; in the assay on PAF-induced hypotension (8 hr.), 33%; in the assay on PAF-induced hypotension (5 min, i.v., 5 min.), 100%. In addition, the inhibition in vivo at 1 mg/kg was determined as 56% in the assay with PAF-induced hypotension (1 hr.); 64% in the assay on PAF-induced hypotension (2 hr.); 72% in the assay with PAF-induced hypotension (4 hr.); 66% in the assay on PAF-induced hypotension (6 hr.); 59% with PAF-induced hypotension (8 hr.). The inhibition in vivo at 3 mg/kg was determined as 89% with PAF-induced hypotension (1 hr.); 100% in the assay on PAF-induced hypotension (2 hr.); 99% in the assay with PAF-induced hypotension (4 hr.); 99% with PAF-induced hypotension (6 hr.); 97% with PAF-induced hypotension (8 hr.).

As for `CCCCCCCCCCCCCCCCCCNC(=O)OCC(COC(=O)NCCN(C)C(=O)c1ccc[n+](CC)c1)OC` (stereo not shown) [Production Example 1, 3-[N-[2-(2-methoxy-3-octadecylcarbamoyloxypropoxycarbonyl)]aminoethyl-N-methyl]carbamoyl-1-ethylpyridinium iodide], in assay [1], the inhibition at 3 µM was 100%, the inhibition at 0.3 µM is 100% and the inhibition at 0.03 µM is 9%.

In the case of `CCC[n+]1cc(Br)cc(C(=O)N(CCOC(=O)NCCOC(=O)Nc2cccc3ccccc23)c2ccc(I)cc2)c1` [Production Example 25, 5-bromo-3-[N-(4-iodophenyl)-N-[2-[2-(1-naphthylcarbamoyloxy)ethyl]carbamoyloxy]ethyl]carbamoyl-1-propylpyridinium chloride], in assay [1], the inhibition at 3 µM is 100%, the inhibition at 0.3 µM was found to be 100% and the inhibition at 0.03 µM was 18%.

In the case of `CCN(CCOC(=O)NCCOc1cccc2ccccc12)C(=O)c1cc(Br)c[n+](CC)c1` [Production Example 15, 5-bromo-1-ethyl-3-[N-ethyl-N-[2-[2-(1-naphthyloxy)ethyl]carbamoyloxy]ethyl]carbamoylpyridinium iodide], in assay [1], the inhibition at 3 µM worked out at 100%, the inhibition at 0.3 µM was determined as 100% and the inhibition at 0.03 µM is 22%.

For `CCCCN(CCOC(=O)NCCOc1cccc2ccccc12)C(=O)c1cc(Br)c[n+](CC)c1` [Production Example 19, 5-bromo-1-ethyl-3-[N-butyl-N-[2-[2-(1-naphthyloxy)ethyl]carbamoyloxy]ethyl]carbamoylpyridinium iodide], in assay [1], the inhibition at 3 µM was 100%, the inhibition at 0.3 µM stood at 100% and the inhibition at 0.03 µM was determined as 42%.

As for `CCC[n+]1cc(Br)cc(C(=O)N(CCOC(=O)NCCOC(=O)Nc2cccc3ccccc23)c2ccc(Cl)cc2)c1` [Production Example 22, 5-bromo-3-[N-(4-chlorophenyl)-N-[2-[2-(1-naphthylcarbamoyloxy)ethyl]carbamoyloxy]ethyl]carbamoyl-1-propylpyridinium chloride], in assay [1], the inhibition at 3 µM stood at 100%, the inhibition at 0.3 µM was 100% and the inhibition at 0.03 µM came out at 11%.

With `CCC[n+]1cc(Br)cc(C(=O)N(CCOC(=O)NCCOC(=O)Nc2cccc3ccccc23)c2cc(OC)c(OC)c(OC)c2)c1` [Production Example 27, 5-bromo-3-[N-[2-[2-(1-naphthylcarbamoyloxy)ethyl]carbamoyloxy]ethyl-N-(3,4,5-trimethoxyphenyl)]carbamoyl-1-propylpyridinium chloride], in assay [1], the inhibition at 3 µM was 100%, the inhibition at 0.3 µM worked out at 100% and the inhibition at 0.03 µM stood at 3%.

For `CC[n+]1cc(Br)cc(C(=O)N(CCOC(=O)NCCOc2cccc3ccccc23)c2ccccc2)c1` [Production Example 6, 5-bromo-3-[N-[2-[2-(1-naphthyloxy)ethyl]carbamoyloxy]ethyl-N-phenyl]carbamoyl-1-ethylpyridinium iodide], in assay [1], the inhibition at 3 µM turned out to be 100%, the inhibition at 0.3 µM is 100% and the inhibition at 0.03 µM is 34%.
